Data as given in article PMC4336777 (Archives of biochemistry and biophysics, 2014).
Entries after “also recorded” stand apart in the source; their conditions may differ. Like-named read-outs stand apart in the source and are kept apart here.

Assays:
Myeloperoxidase (MPO) [1] = target: T1, Myeloperoxidase (MPO) (Homo sapiens, UniProt P05164); experiment: MPO fluorescence stopped flow assay; conditions: for k−3: same fixed constants; for Akaike weight / ΔAICc: Dynafit 3 model discrimination; for best fitting slow binding inhibition model: Akaike information criterion based discrimination
Myeloperoxidase (MPO) [2] = target: T1, Myeloperoxidase (MPO); experiment: SDS-PAGE analysis of inhibitor-mediated cleavage of MPO; format: biochemical; conditions: MPO 1.2 μM, ADHP 40 μM, inhibitor 0-25 mM, H2O2 20 μM, 10 min, room temperature
Myeloperoxidase (MPO) [3] = target: T1, Myeloperoxidase (MPO); conditions: for apparent kcat of MPO for ADHP in presence of inhibitor: Lineweaver-Burk
Myeloperoxidase (MPO) [4] = target: T1, Myeloperoxidase (MPO); conditions: MPO 23 nM pre-incubated with inhibitor 1 hr without H2O2, dialysis, then H2O2
[5] = 1 or 2-step slow tight-binding fit, DynaFit 3, fixed k+1 = 10 μM^−1s^−1, k−1 = 80 s^−1, k+2 = 224 s^−1, pH 5.6, 25°C
[6] = 1 or 2-step slow tight-binding fit, DynaFit 3
[7] = 2-step slow tight-binding fit, DynaFit 3

T1 sequence (P05164 165-273 limits assumed): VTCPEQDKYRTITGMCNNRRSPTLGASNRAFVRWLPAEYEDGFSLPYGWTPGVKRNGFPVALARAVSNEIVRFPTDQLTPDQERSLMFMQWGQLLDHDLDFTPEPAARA
T1 sequence (P05164 279-745 limits assumed): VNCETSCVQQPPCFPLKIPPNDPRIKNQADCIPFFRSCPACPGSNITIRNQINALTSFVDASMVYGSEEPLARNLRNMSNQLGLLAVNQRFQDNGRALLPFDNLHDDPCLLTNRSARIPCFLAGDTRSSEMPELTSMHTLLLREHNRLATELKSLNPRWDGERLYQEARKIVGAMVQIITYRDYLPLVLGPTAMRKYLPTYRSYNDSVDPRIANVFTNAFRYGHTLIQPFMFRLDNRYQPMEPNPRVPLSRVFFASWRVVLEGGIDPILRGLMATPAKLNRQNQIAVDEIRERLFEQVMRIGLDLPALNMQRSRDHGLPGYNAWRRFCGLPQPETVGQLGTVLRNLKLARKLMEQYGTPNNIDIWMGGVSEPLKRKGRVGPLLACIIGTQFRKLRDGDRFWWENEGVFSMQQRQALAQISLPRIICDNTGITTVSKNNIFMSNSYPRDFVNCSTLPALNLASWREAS

k+3 (Myeloperoxidase (MPO) [1]; [5]) | Ki (Myeloperoxidase (MPO) [1]; Ki, Ki = k−3/k+3, DynaFit 3) [nM] | SMILES | k−3 (Myeloperoxidase (MPO) [1]; [6]) | Akaike weight (Myeloperoxidase (MPO) [1]; 1 step model) | ΔAICc (Myeloperoxidase (MPO) [1]; 1 step model) | Akaike weight (Myeloperoxidase (MPO) [1]; 2 step model) | ΔAICc (Myeloperoxidase (MPO) [1]; 2 step model) | best fitting slow binding inhibition model (Myeloperoxidase (MPO) [1]) | also measured
0.10 ± 0.0014 µM⁻¹ s⁻¹ | 260 | NNC(=O)c1ccccc1N [2-ABAH, 2-aminobenzoic acid hydrazide] | 0.026 ± 0.0003 s⁻¹ | 0.01127 | 8.9 | 0.9887 | 0 | two-step slow binding inhibitor; also recorded: two-step mechanism | k+4 (Myeloperoxidase (MPO) [1]; [7]): 0.0067 ± 0.0004 s⁻¹; k−4 (Myeloperoxidase (MPO) [1]; [7]): 0.0094 ± 0.002 s⁻¹; Ki (Myeloperoxidase (MPO) [1]; Ki* (overall inhibition constant, two-step model), two-step slow tight-binding model, Eq. 9): 160 nM; fold higher affinity inhibitor of Compound I as compared to isoniazid (Myeloperoxidase (MPO) [1]; from Ki* versus Ki of isoniazid): 62 fold
 | 560 | CN(C)c1cccc(C(=O)NN)c1 [3-DMABAH, 3-(dimethylamino) benzoic acid hydrazide] |  |  |  |  |  |  | 
0.0075 ± 4.93E-05 μM^−1s^−1 | 830 | NNC(=O)c1ccc(F)cc1 [4-FBAH, 4-fluorobenzoic acid hydrazide] | 0.0062 ± 0.0001 s⁻¹ | 0.9196 | 0 | 0.0804 | 4.9 |  | 
 | 3700 | NNC(=O)c1ccc([N+](=O)[O-])cc1 [4-NBAH, 4-nitrobenzoic acid hydrazide] |  |  |  |  |  |  | 
 |  | CC(=O)N1c2ccc(O)cc2Oc2cc(O)ccc21 [ADHP, 10-acetyl-3,7-dihydroxyphenoxazine, reference compound] |  |  |  |  |  |  | kon (Myeloperoxidase (MPO) [1]; read-out: apparent second order rate constant (K^appon)): 2100 ± 200 M⁻¹ s⁻¹
 |  | OO [H2O2, hydrogen peroxide] |  |  |  |  |  |  | Ki (Myeloperoxidase (MPO) [3]; read-out: apparent inhibitory rate constant Ki (substrate inhibition)): 10.8 nM
0.0011 ± 7.31E-06 μM^−1s^−1 | 10000 | NNC(=O)c1ccncc1 [Isoniazid, isonicotinylhydrazine, reference compound] | 0.011 ± 0.0001 s⁻¹ | 0.8857 | 0 | 0.1143 | 4.1 | one-step slow binding inhibition model | 
 |  | [N-]=[N+]=[N-].[Na+] [NaN3, sodium azide, reference compound] | 0.156 ± 0.001 s⁻¹ | 0.8814 | 0 | 0.1186 | 4.0 | one-step slow binding inhibition model | Ki (Myeloperoxidase (MPO) [1]; Ki = k−3/k+3, DynaFit 3): 840 nM; k+3 (Myeloperoxidase (MPO) [1]; pH 5.6): 0.185 ± 0.0018 µM⁻¹ s⁻¹; reversibility of inhibitor binding to MPO after equilibrium dialysis (Myeloperoxidase (MPO) [4]): reversible; type of inhibition with ADHP (Myeloperoxidase (MPO) [3]; Lineweaver-Burk plots, 0, 7.5, 30 μM NaN3): competitive inhibition or mixed-type inhibition; apparent kcat of MPO for ADHP in presence of inhibitor (Myeloperoxidase (MPO) [3]; NaN3 7.5 μM): 161 s⁻¹; apparent kcat of MPO for ADHP in presence of inhibitor (Myeloperoxidase (MPO) [3]; NaN3 30 μM): 108 s⁻¹; fold reduction in apparent specificity constant (kcat/Km) (Myeloperoxidase (MPO) [3]; native system versus 30 μM NaN3): 11 fold

SMILES | k+3 (Myeloperoxidase (MPO) [1]; [5]) | Ki (Myeloperoxidase (MPO) [1]; Ki, Ki = k−3/k+3, DynaFit 3) [nM] | k−3 (Myeloperoxidase (MPO) [1]; [6]) | Akaike weight (Myeloperoxidase (MPO) [1]; 1 step model) | ΔAICc (Myeloperoxidase (MPO) [1]; 1 step model) | Akaike weight (Myeloperoxidase (MPO) [1]; 2 step model) | ΔAICc (Myeloperoxidase (MPO) [1]; 2 step model) | best fitting slow binding inhibition model (Myeloperoxidase (MPO) [1]) | also measured
NNC(=O)c1ccc(C(F)(F)F)cc1 [4-TFMBAH, 4-(trifluoromethyl) benzoic acid hydrazide] | 0.0013 ± 1.36E-05 μM^−1s^−1 | 3080 | 0.004 ± 0.0002 s⁻¹ | 0.909 | 0 | 0.09104 | 4.6 | one-step slow binding inhibition model | 
NNC(=O)c1ccccc1 [BAH, benzoic acid hydrazide] | 0.0098 ± 5.47E-05 μM^−1s^−1 | 690 | 0.0068 ± 9.5E-05 s^−1 | 0.9969 | 0 | 0.00315 | 11.5 |  | cleavage of MPO light chain-heme from heavy chain (Myeloperoxidase (MPO) [2]): light chain of MPO is cleaved from MPO
